Structures can show the parent of a compound that is named as a salt. Where two headings read alike, the source gives them in different places.
Experiments:
[1] = PK protocol, intravenous administration; format: in vivo, male Sprague Dawley rats; settings: male, Sprague Dawley, plasma, rat; for Vd: read-out: Vdss
Method: Pharmacokinetic parameters were determined in male Sprague Dawley rats (Charles River, UK, 250-350 g; or Vital River Laboratory Animal Technology Co Ltd, Beijing, China, 7-9 weeks old). Animals were individually housed during the study and maintained under a 12 h light/dark cycle. Animals had free access to food and water.
For intravenous administration, compounds were formulated as a solution in water or DMSO:PBS [10:90] in 2 mL/kg dosing volume and administered via tail vein. For oral administration, compounds were formulated as a solution in DMSO:water [10:90] in 5 mL/kg dosing volume and administered orally.
Serial blood samples (about 120-300 μL) were taken from each animal at each of 8 time-points post dose (0.083, 0.25, 0.5, 1, 2, 4, 8 and 24 h) or at each of 12 time-points post dose (0.03, 0.1, 0.17, 0.25, 0.5, 1, 2, 4, 6, 8, 12 and 24 h) or pre-dose and at each of 9 time-points post dose (0.25, 0.5, 1, 2, 4, 6, 8, 12 and 24 h). Samples were held on ice for no longer than 30 minutes before centrifugation (10,000 rpm (8,385 g) for 3 minutes; or 5,696 rpm (3,000 g) for 15 minutes) for plasma generation. Plasma was frozen on dry ice prior to bioanalysis. PK parameters were generated from LC-MS/MS data using Dotmatics or Phoenix WinNonlin 6.3 software.

NLRP3 [2] = target: T1, NLRP3 (Homo sapiens, UniProt Q96P20); test: THP-1 cells pyroptosis assay (LPS + nigericin, resazurin readout; THP IC50); format: cell-based; parameters: Seed THP-1 cells (25,000 cells/well) containing 1.0 μg/ml LPS in 40 μl of RPMI medium; host or cells: THP-1 cells
Method in brief: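 IC50 from 4-parameter fit of resazurin fluorescence (100 μM, 1-2 hrs), reflecting surviving cells after pyroptosis. LPS-primed (1 μg/ml) THP-1 cells in FBS-free RPMI got compound for 3 hrs at 37° C (top 10 μM, half-log, 8 points), then nigericin 5 μM for 1 hr.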

NLRP3 [3] = target: T1, NLRP3; test: Human whole blood IL1β release assay (LPS + nigericin, AlphaLisa IL-1β; HWB IC50); format: cell-based; parameters: Human whole blood in Li-heparin tubes was obtained from healthy donors from a volunteer donor panel; from tissue; host or cells: human whole blood from healthy donors; settings: IL-1β release
Method in brief: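 IL-1β in plasma supernatant quantified by AlphaLisa after nigericin (10 μM final, 1 h, 37 °C) triggering of human whole blood that had been preincubated 3 h with LPS (1 μg/ml) plus compound (half-log, 8 points, from 10 μM). IC50 by variable-slope four-parameter regression.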

T1 sequence (Q96P20 whole entry): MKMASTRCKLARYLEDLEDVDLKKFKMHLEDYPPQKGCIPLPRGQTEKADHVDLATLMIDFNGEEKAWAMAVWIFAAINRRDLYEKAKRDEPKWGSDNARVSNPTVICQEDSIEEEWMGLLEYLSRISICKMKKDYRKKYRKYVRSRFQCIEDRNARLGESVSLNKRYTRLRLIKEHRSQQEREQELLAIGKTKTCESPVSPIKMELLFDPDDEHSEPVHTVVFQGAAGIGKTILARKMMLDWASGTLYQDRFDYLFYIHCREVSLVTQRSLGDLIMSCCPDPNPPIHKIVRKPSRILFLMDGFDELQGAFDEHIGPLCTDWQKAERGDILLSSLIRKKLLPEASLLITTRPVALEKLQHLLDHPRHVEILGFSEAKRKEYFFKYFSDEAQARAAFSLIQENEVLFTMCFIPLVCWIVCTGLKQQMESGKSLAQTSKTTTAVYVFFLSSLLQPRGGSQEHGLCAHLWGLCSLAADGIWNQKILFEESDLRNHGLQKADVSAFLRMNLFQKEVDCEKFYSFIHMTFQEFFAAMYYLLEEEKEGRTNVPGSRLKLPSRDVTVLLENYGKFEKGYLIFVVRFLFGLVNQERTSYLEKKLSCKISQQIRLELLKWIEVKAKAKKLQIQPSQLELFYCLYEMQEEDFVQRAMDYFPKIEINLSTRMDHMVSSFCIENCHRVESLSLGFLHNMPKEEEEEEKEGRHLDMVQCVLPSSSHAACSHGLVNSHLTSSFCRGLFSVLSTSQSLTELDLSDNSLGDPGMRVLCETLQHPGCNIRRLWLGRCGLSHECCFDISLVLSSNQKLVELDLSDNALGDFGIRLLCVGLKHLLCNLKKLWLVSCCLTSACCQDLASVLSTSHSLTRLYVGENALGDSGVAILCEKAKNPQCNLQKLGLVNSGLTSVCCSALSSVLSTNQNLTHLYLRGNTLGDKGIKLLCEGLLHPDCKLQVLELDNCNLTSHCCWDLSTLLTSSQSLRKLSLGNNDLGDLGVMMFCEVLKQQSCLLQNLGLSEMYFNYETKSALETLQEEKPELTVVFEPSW

Row | SMILES | AUC ([1]; dose 1 mg/kg) | clearance ([1]; dose 1 mg/kg) | half-life ([1]; dose 1 mg/kg) | Vd ([1]; dose 1 mg/kg) | IC50 (NLRP3 [2]) | IC50 (NLRP3 [3]) | AUC ([1]; dose 1.98 mg/kg) | clearance ([1]; dose 1.98 mg/kg) | half-life ([1]; dose 1.98 mg/kg) | Vd ([1]; dose 1.98 mg/kg) | AUC ([1]; dose 1.69 mg/kg) | clearance ([1]; dose 1.69 mg/kg) | half-life ([1]; dose 1.69 mg/kg) | Vd ([1]; dose 1.69 mg/kg)
1 | COc1cc(-c2ccc3c(c2NC(=O)NS(=O)(=O)c2ccn(C(C)C)n2)CCO3)ccn1 [Example 224, 1-Isopropyl-N-((5-(2-methoxypyridin-4-yl)-2,3-dihydrobenzofuran-4-yl)carbamoyl)-1H-pyrazole-3-sulfonamide, sodium salt] | 6480 ng·h/mL | 2.6 mL/min/kg | 3.2 h | 0.47 L/kg | ≤ 500 nM | ≤ 500 nM | – | – | – | – | – | – | – | –
2 | COc1cc(-c2ccc3c(c2NC(=O)NS(=O)(=O)N(C)C2CCN(C)C2)CCC3)ccn1 (stereo not drawn) [Example 122, 3-(N-Methyl-N-(1-methylpyrrolidin-3-yl)sulfamoyl)-1-(5-(2-methoxypyridin-4-yl)-2,3-dihydro-1H-inden-4-yl)urea] | 1320 ng·h/mL | 12.6 mL/min/kg | 11.1 h | 8.69 L/kg | ≤ 500 nM | ≤ 500 nM | – | – | – | – | – | – | – | –
3 | CC(C)c1cc(F)cc(-c2cccnc2)c1NC(=O)NS(=O)(=O)c1ccn(C(C)C)n1 [Example 1, N-((4-Fluoro-2-iso-propyl-6-(pyridin-3-yl)phenyl)carbamoyl)-1-iso-propyl-1H-pyrazole-3-sulfonamide] | 341 ng·h/mL | 49.1 mL/min/kg | 3.3 h | 4.49 L/kg | ≤ 500 nM | ≤ 500 nM | – | – | – | – | – | – | – | –
4 | CC(C)c1cc(F)cc(-c2cccnc2)c1NC(=O)NS(=O)(=O)c1cc(C(=O)N(C)C)n(C)n1 [Example 33, 3-(N-((4-Fluoro-2-iso-propyl-6-(pyridin-3-yl)phenyl)carbamoyl)sulfamoyl)-N,N,1-trimethyl-1H-pyrazole-5-carboxamide, sodium salt] | 274 ng·h/mL | 60.7 mL/min/kg | 6.3 h | 3.95 L/kg | ≤ 500 nM | ≤ 500 nM | – | – | – | – | – | – | – | –
5 | CC(C)c1cc(F)cc(-c2ccncc2)c1NC(=O)NS(=O)(=O)c1ccn(C(C)C)n1 [Example 10, N-((4-Fluoro-2-iso-propyl-6-(pyridin-4-yl)phenyl)carbamoyl)-1-iso-propyl-1H-pyrazole-3-sulfonamide, partial ammonium salt] | – | – | – | – | ≤ 500 nM | ≤ 500 nM | 806 ng·h/mL | 40.9 mL/min/kg | 3.8 h | 7.14 L/kg | – | – | – | –
6 | CC(C)c1cc(F)cc(-c2cccc(C#N)c2)c1NC(=O)NS(=O)(=O)c1cc(CN(C)C)n(C)n1 [Example 38, N-((3′-Cyano-5-fluoro-3-iso-propyl-[1,1′-biphenyl]-2-yl)carbamoyl)-5-((dimethylamino)methyl)-1-methyl-1H-pyrazole-3-sulfonamide] | 375 ng·h/mL | 51.5 mL/min/kg | 1.2 h | 1.14 L/kg | ≤ 500 nM | ≤ 500 nM | – | – | – | – | – | – | – | –
7 | COc1cc(-c2cc(F)c3c(c2NC(=O)NS(=O)(=O)c2ccn(C(C)C)n2)CCC3)ccn1 [Example 55, N-((7-Fluoro-5-(2-methoxypyridin-4-yl)-2,3-dihydro-1H-inden-4-yl)carbamoyl)-1-isopropyl-1H-pyrazole-3-sulfonamide] | 1860 ng·h/mL | 9.8 mL/min/kg | 6.9 h | 3.25 L/kg | ≤ 500 nM | ≤ 1000 nM | – | – | – | – | – | – | – | –
8 | Cc1cc(-c2cc(F)cc(C(C)C)c2NC(=O)NS(=O)(=O)c2cc(CN(C)C)n(C)n2)n(C)n1 [Example 45] | 259 ng·h/mL | 65.6 mL/min/kg | 0.5 h | 0.98 L/kg | ≤ 500 nM | ≤ 500 nM | – | – | – | – | – | – | – | –
9 | CC(C)c1cc(F)cc(-c2cccnc2)c1NC(=O)NS(=O)(=O)c1cc(CN(C)C)n(C)n1 [Example 44, 5-((Dimethylamino)methyl)-N-((4-fluoro-2-isopropyl-6-(pyridin-3-yl)phenyl)carbamoyl)-1-methyl-1H-pyrazole-3-sulfonamide] | 259 ng·h/mL | 64.9 mL/min/kg | 0.5 h | 0.75 L/kg | ≤ 500 nM | ≤ 500 nM | – | – | – | – | – | – | – | –
10 | COc1cc(-c2cc(F)cc(C(C)C)c2NC(=O)NS(=O)(=O)c2cc(CN(C)C)n(C)n2)ccn1 [Example 36, 5-((Dimethylamino)methyl)-N-((4-fluoro-2-iso-propyl-6-(2-methoxypyridin-4-yl)phenyl)carbamoyl)-1-methyl-1H-pyrazole-3-sulfonamide] | 356 ng·h/mL | 47.6 mL/min/kg | 0.5 h | 0.8 L/kg | ≤ 500 nM | ≤ 500 nM | – | – | – | – | – | – | – | –
11 | CC#Cc1cc(-c2cc(F)cc(C(C)C)c2NC(=O)NS(=O)(=O)c2ccn(C(C)C)n2)ccn1 [Example 51, N-((4-Fluoro-2-isopropyl-6-(2-(prop-1-yn-1-yl)pyridin-4-yl)phenyl)carbamoyl)-1-isopropyl-1H-pyrazole-3-sulfonamide] | 600 ng·h/mL | 27.8 mL/min/kg | 3.7 h | 3.68 L/kg | ≤ 500 nM | ≤ 500 nM | – | – | – | – | – | – | – | –
12 | CC(C)c1cc(F)cc(-c2ccnc(O)c2)c1NC(=O)NS(=O)(=O)c1ccn(C(C)C)n1 [Example 25, N-((4-Fluoro-2-(2-hydroxypyridin-4-yl)-6-iso-propylphenyl)carbamoyl)-1-iso-propyl-1H-pyrazole-3-sulfonamide] | 412 ng·h/mL | 41.9 mL/min/kg | 0.4 h | 0.41 L/kg | ≤ 500 nM | ≤ 500 nM | – | – | – | – | – | – | – | –
13 | COc1cc(-c2ccc3c(c2NC(=O)NS(=O)(=O)c2ccc(CN(C)C)cc2)CCC3)ccn1 [Example 251, 4-((Dimethylamino)methyl)-N-((5-(2-methoxypyridin-4-yl)-2,3-dihydro-1H-inden-4-yl)carbamoyl)benzenesulfonamide, sodium salt] | 1260 ng·h/mL | 13.3 mL/min/kg | 2.9 h | 2.12 L/kg | ≤ 500 nM | ≤ 500 nM | – | – | – | – | – | – | – | –
14 | CC(C)n1cc(S(=O)(=O)NC(=O)Nc2c(-c3ccnc(C#N)c3)ccc3c2CCC3)nn1 [Example 230, N-((5-(2-Cyanopyridin-4-yl)-2,3-dihydro-1H-inden-4-yl)carbamoyl)-1-isopropyl-1H-1,2,3-triazole-4-sulfonamide, sodium salt] | 1950 ng·h/mL | 8.5 mL/min/kg | 1.3 h | 0.24 L/kg | ≤ 500 nM | ≤ 500 nM | – | – | – | – | – | – | – | –
15 | COc1cc(-c2ccc3c(c2NC(=O)NS(=O)(=O)c2ccn(CCN(C)C)n2)CCC3)ccn1 [Example 61, 1-(2-(Dimethylamino)ethyl)-N-((5-(2-methoxypyridin-4-yl)-2,3-dihydro-1H-inden-4-yl)carbamoyl)-1H-pyrazole-3-sulfonamide] | – | – | – | – | ≤ 500 nM | ≤ 500 nM | – | – | – | – | 1140 ng·h/mL | 24.6 mL/min/kg | 1.2 h | 0.6 L/kg
16 | CC(C)c1cc(F)cc(-c2cccnc2)c1NC(=O)NS(=O)(=O)c1ccn(C[C@@H](C)O)n1 [Example 60, (R)-N-((4-Fluoro-2-isopropyl-6-(pyridin-3-yl)phenyl)carbamoyl)-1-(2-hydroxypropyl)-1H-pyrazole-3-sulfonamide] | 300 ng·h/mL | 56.3 mL/min/kg | 1 h | 1.22 L/kg | ≤ 500 nM | ≤ 500 nM | – | – | – | – | – | – | – | –
17 | CC(C)n1ccc(S(=O)(=O)NC(=O)Nc2c(-c3ccnnc3)ccc3c2CCC3)n1 [Example 223, 1-Isopropyl-N-((5-(Pyridazin-4-yl)-2,3-dihydro-1H-inden-4-yl)carbamoyl)-1H-pyrazole-3-sulfonamide, sodium salt] | 1740 ng·h/mL | 9.6 mL/min/kg | 0.9 h | 0.31 L/kg | ≤ 500 nM | ≤ 500 nM | – | – | – | – | – | – | – | –
18 | CC(C)c1cc(F)cc(C2CCOCC2)c1NC(=O)NS(=O)(=O)c1cc(C(=O)N(C)C)n(C)n1 [Example 30, 3-(N-((4-Fluoro-2-iso-propyl-6-(tetrahydro-2H-pyran-4-yl)phenyl)carbamoyl)sulfamoyl)-N,N,1-trimethyl-1H-pyrazole-5-carboxamide, sodium salt] | 182 ng·h/mL | 91.3 mL/min/kg | 2.3 h | 2.72 L/kg | ≤ 5000 nM | ≤ 500 nM | – | – | – | – | – | – | – | –

Reference: US20200361895A1, “NOVEL SULFONAMIDE CARBOXAMIDE COMPOUNDS” (Inflazome Limited, priority 2017, published 2020)
